Here are results for six compounds from patent US6737383B1, “Herbicidal oxadiazolidines” (priority 1999, dated 2004).

One experiment deals with giant foxtail. Nature of the experiment: Test B pre/postemergence giant foxtail. It is filed as in vivo, Setaria faberii. Summed up: (§1)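 Herbicidal effect was estimated by eye on a ten-point control scale after plants spent twelve to sixteen days in a greenhouse following soil or foliar treatment. Foliar sprays targeted plants at one to four leaves; all doses were formulated in a non-phytotoxic solvent with surfactant.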

Another experiment relates to morningglory. Nature of the experiment: Test B pre/postemergence morningglory. It is filed as in vivo, Ipomoea hederacea. Summed up:
as §1

Another experiment deals with pigweed. Nature of the experiment: Test B pre/postemergence pigweed. It is filed as in vivo, Amaranthus retroflexus. Summed up: as §1
Where [1] appears, read: Postemergence, Rate 250 g/ha, scale 0 to 10.
Where [2] appears, read: Postemergence, Rate 500 g/ha, scale of 0 to 10 where 0 is no effect and 10 is complete control.
The mark [3] stands for this setting: Preemergence, Rate 62 g/ha, scale 0 to 10 (0 no effect, 10 complete control).
The mark [4] stands for this setting: Preemergence, Rate 125 g/ha, scale of 0 to 10 where 0 is no effect and 10 is complete control.
Setting [5] is: Preemergence, Rate 250 g/ha, scale 0 to 10, 0 is no effect, 10 is complete control.
[6] abbreviates: Preemergence, Rate 500 g/ha, scale 0 to 10, 0 is no effect, 10 is complete control.
Setting [7] is: Rate 62 g/ha, Postemergence, scale of 0 to 10 where 0 is no effect and 10 is complete control.
Setting [8] is: Rate 125 g/ha, Postemergence, scale 0 to 10, 0 is no effect, 10 is complete control.
[9] abbreviates: Postemergence, Rate 31 g/ha, visual rating, scale 0 to 10 (0 no effect, 10 complete control).
Where [10] appears, read: Postemergence, Rate 125 g/ha, scale 0 to 10, 0 is no effect, 10 is complete control.
Where [11] appears, read: Preemergence, Rate 62 g/ha, scale of 0 to 10 where 0 is no effect and 10 is complete control.
The mark [12] stands for this setting: Preemergence, Rate 125 g/ha, scale 0 to 10, 0 is no effect, 10 is complete control.
The mark [13] stands for this setting: Rate 62 g/ha, Postemergence, scale 0 to 10, 0 no effect, 10 complete control.
Where [14] appears, read: Postemergence, Rate 62 g/ha, scale 0 to 10, 0 is no effect, 10 is complete control.
[15] abbreviates: Postemergence, Rate 125 g/ha, scale of 0 to 10 where 0 is no effect and 10 is complete control.
Where [16] appears, read: Postemergence, Rate 250 g/ha, scale 0 to 10, 0 no effect, 10 complete control.
The mark [17] stands for this setting: Preemergence, Rate 125 g/ha, scale 0 to 10 (0 no effect, 10 complete control).
The mark [18] stands for this setting: Preemergence, Rate 250 g/ha, scale of 0 to 10 where 0 is no effect and 10 is complete control.
Setting [19] is: Preemergence, Rate 500 g/ha, scale 0 (no effect) to 10 (complete control).
[20] abbreviates: Rate 500 g/ha, Postemergence, scale 0 to 10, 0 no effect, 10 complete control.
The mark [21] stands for this setting: Postemergence, Rate 250 g/ha, scale 0 to 10, 0 is no effect, 10 is complete control.
The mark [22] stands for this setting: Preemergence, Rate 62 g/ha, scale 0 to 10, 0 is no effect, 10 is complete control.
The mark [23] stands for this setting: Rate 125 g/ha, Postemergence, scale 0 to 10, 0 no effect, 10 complete control.
Where [24] appears, read: Rate 500 g/ha, Postemergence, 0 to 10 scale (0 no effect, 10 complete control).

In the case of `CC(C)N(C(=O)n1oc(=O)n(CC2=NOCCC2)c1=O)c1ccccc1` [Compound 430], the “Giant foxtail plant response rating” value in the experiment on giant foxtail (setting [1]) is given as 9; with giant foxtail (setting [2]), 9; in the experiment on giant foxtail (setting [5]), 10; in the experiment with giant foxtail (setting [6]), 10; in the experiment with giant foxtail (setting [7]) it was 6; in the experiment on giant foxtail (setting [8]), 8. Also, the “Plant response rating, Giant foxtail” value in the experiment with giant foxtail (setting [3]) and with giant foxtail (setting [4]) was 10 throughout. In addition, the “Morningglory plant response rating” value is recorded as 3 in the experiment on morningglory (setting [1]); 3 in the experiment on morningglory (setting [2]); 0 in the experiment on morningglory (setting [5]); 0 in the experiment on morningglory (setting [6]); 2 in the experiment with morningglory (setting [8]). The “Plant response rating, Morningglory” value in the experiment with morningglory (setting [3]) and in the experiment with morningglory (setting [4]) was 0 in each case. Besides, the “Redroot pigweed plant response rating” value in the experiment with pigweed (setting [1]) turned out to be 3; in the experiment on pigweed (setting [2]) it was 3; with pigweed (setting [5]), 2; in the experiment with pigweed (setting [6]) it was 7; in the experiment with pigweed (setting [8]) it was 2. Besides, the “Plant response rating, Redroot pigweed” value in the experiment with pigweed (setting [3]) and with pigweed (setting [4]) was 0 in each case.

Consider `CC(C)N(C(=O)n1oc(=O)n(CC[N+](=O)[O-])c1=O)c1ccc(Cl)cc1` [Compound 483], for which the “Giant foxtail plant response rating” value in the experiment with giant foxtail (setting [9]) amounted to 0; in the experiment on giant foxtail (setting [10]), 0; with giant foxtail (setting [1]), 0; with giant foxtail (Preemergence, Rate 31 g/ha, visual rating, scale 0 to 10 (0 no effect, 10 complete control)), 0; with giant foxtail (setting [12]) it was 0; in the experiment on giant foxtail (setting [5]) it was 0. Moreover, the “Giant foxtail plant response rating” value in the experiment on giant foxtail (setting [13]) turned out to be 0. In addition, the “Plant response rating, Giant foxtail” value with giant foxtail (setting [11]) is recorded as 0. Also, the “Morningglory plant response rating” value in the experiment on morningglory (setting [9]), with morningglory (setting [10]), in the experiment with morningglory (setting [1]), with morningglory (setting [12]), in the experiment on morningglory (setting [5]) and with morningglory (setting [13]) was 0 each time. Besides, the “Plant response rating, Morningglory” value in the experiment with morningglory (setting [11]) is 0. Moreover, the “Redroot pigweed plant response rating” value in the experiment with pigweed (setting [9]), in the experiment on pigweed (setting [10]), with pigweed (setting [1]), in the experiment with pigweed (setting [12]), with pigweed (setting [5]) and in the experiment with pigweed (setting [13]) was 0 in each case. In addition, the “Plant response rating, Redroot pigweed” value in the experiment with pigweed (setting [11]) is 0.

Turning to `Cc1nn(C)c(Cl)c1-n1c(=O)on(C(=O)N(c2ccc(F)cc2)C(C)C)c1=O` [Compound 95], the “Giant foxtail plant response rating” value with giant foxtail (setting [14]) is 0; with giant foxtail (setting [15]), 0; with giant foxtail (setting [16]), 1; in the experiment on giant foxtail (setting [3]), 2; with giant foxtail (setting [19]) it was 8; in the experiment with giant foxtail (setting [20]), 6. Moreover, the results for the “Plant response rating, Giant foxtail” value with giant foxtail (setting [17]) and in the experiment with giant foxtail (setting [18]) were 4 and 7, respectively. The “Morningglory plant response rating” value was 1 with morningglory (setting [14]); 1 in the experiment with morningglory (setting [15]); 2 in the experiment on morningglory (setting [16]); 0 in the experiment on morningglory (setting [3]); 0 with morningglory (setting [19]); 8 in the experiment with morningglory (setting [20]). Besides, the “Plant response rating, Morningglory” value with morningglory (setting [17]) and with morningglory (setting [18]) was 0 each time. The “Redroot pigweed plant response rating” value with pigweed (setting [14]) is on record as 2; in the experiment on pigweed (setting [15]), 3; in the experiment with pigweed (setting [3]), 5; with pigweed (setting [19]) it was 9; in the experiment with pigweed (setting [20]), 5. In addition, the “Plant response rating, Redroot pigweed” value in the experiment on pigweed (setting [17]) was found to be 6; in the experiment with pigweed (setting [18]), 9; with pigweed (Rate 250 g/ha, Postemergence, scale 0 to 10, 0 is no effect, 10 is complete control), 3.

Take `CC(C)N(C(=O)n1oc(=O)n(CCl)c1=O)c1ccc(Cl)cc1` [Compound 422]: the “Plant response rating, Giant foxtail” value in the experiment with giant foxtail (setting [21]), in the experiment with giant foxtail (setting [3]) and in the experiment on giant foxtail (setting [4]) was 0 each time. Moreover, the “Giant foxtail plant response rating” value in the experiment with giant foxtail (setting [2]), in the experiment with giant foxtail (setting [5]), in the experiment with giant foxtail (setting [6]), in the experiment on giant foxtail (setting [7]) and in the experiment on giant foxtail (setting [8]) was 0 in each case. Also, the “Plant response rating, Morningglory” value in the experiment on morningglory (setting [21]), with morningglory (setting [3]) and in the experiment on morningglory (setting [4]) was 0 each time. The “Morningglory plant response rating” value in the experiment on morningglory (setting [2]), in the experiment with morningglory (setting [5]), in the experiment on morningglory (setting [6]) and with morningglory (setting [8]) was 0 each time. The “Plant response rating, Redroot pigweed” value in the experiment on pigweed (setting [21]), with pigweed (setting [3]) and with pigweed (setting [4]) was 0 in each case. Besides, the “Redroot pigweed plant response rating” value in the experiment on pigweed (setting [2]), in the experiment with pigweed (setting [5]), with pigweed (setting [6]) and in the experiment on pigweed (setting [8]) was 0 in each case.

Regarding `Cc1ccccc1-n1c(=O)on(C(=O)N(c2ccc(F)cc2F)C(C)C)c1=O` [Compound 25], the “Giant foxtail plant response rating” value in the experiment on giant foxtail (setting [14]) was determined as 3; in the experiment on giant foxtail (setting [16]) it was 8; with giant foxtail (setting [19]), 10; in the experiment with giant foxtail (setting [23]) it was 5; in the experiment with giant foxtail (setting [24]), 8. In addition, the results for the “Plant response rating, Giant foxtail” value in the experiment with giant foxtail (setting [22]), in the experiment with giant foxtail (setting [17]) and in the experiment on giant foxtail (setting [18]) were 5, 7 and 10, respectively. For the same compound, the “Morningglory plant response rating” value was 1 with morningglory (setting [14]); 2 with morningglory (setting [16]); 0 with morningglory (setting [19]); 1 with morningglory (setting [23]); 2 with morningglory (setting [24]). The “Plant response rating, Morningglory” value with morningglory (setting [22]), with morningglory (setting [17]) and in the experiment with morningglory (setting [18]) was 0 throughout. Also, the “Redroot pigweed plant response rating” value in the experiment with pigweed (setting [14]) is on record as 0; in the experiment on pigweed (setting [16]), 0; in the experiment on pigweed (setting [19]) it was 8; in the experiment with pigweed (setting [23]), 0; in the experiment with pigweed (setting [24]), 4. Also, the results for the “Plant response rating, Redroot pigweed” value in the experiment on pigweed (setting [22]), in the experiment with pigweed (setting [17]) and with pigweed (setting [18]) were 0, 0 and 8, respectively.

Regarding `CC(C)N(C(=O)n1oc(=O)n(C(C)C#N)c1=O)c1ccc(Cl)cc1` (stereo not shown) [Compound 451], the “Giant foxtail plant response rating” value is recorded as 3 in the experiment with giant foxtail (setting [1]); 7 in the experiment with giant foxtail (setting [2]); 4 in the experiment with giant foxtail (setting [5]); 7 in the experiment with giant foxtail (setting [6]); 0 in the experiment with giant foxtail (setting [13]); 0 in the experiment on giant foxtail (setting [8]). Further, the “Plant response rating, Giant foxtail” value with giant foxtail (setting [11]) and in the experiment on giant foxtail (setting [4]) was 0 in each case. Also, the “Morningglory plant response rating” value was 1 with morningglory (setting [1]); 0 in the experiment on morningglory (setting [5]); 0 in the experiment with morningglory (setting [6]); 1 with morningglory (setting [13]); 1 in the experiment on morningglory (setting [8]). Further, the “Plant response rating, Morningglory” value in the experiment on morningglory (setting [11]) and in the experiment on morningglory (setting [4]) was 0 each time. Also, the “Redroot pigweed plant response rating” value in the experiment on pigweed (setting [1]), in the experiment with pigweed (setting [5]), in the experiment on pigweed (setting [6]), in the experiment with pigweed (setting [13]) and in the experiment on pigweed (setting [8]) was 0 each time. For the same compound, the “Plant response rating, Redroot pigweed” value with pigweed (setting [11]) and in the experiment with pigweed (setting [4]) was 0 in each case.
